Assay results from patent US20040253265A1, “Biological compositions and methods for treatment of bladder cancer” (priority 2003, published 2004).

Experiments:
bladder cell line BBN [1] = test: Tumor growth in Wistar rats with transplanted bladder cancer cells (Example 8); format: in vivo, rat; details: tumor-bearing Wistar rats; 30 consecutive days of treatment (yeast 0.3 ml oral once per day; VCR 3 mg/kg/day i.v.); sacrificed on 31st day
Experimental: The four experimental groups were triplicated (i.e., using a total of 120 rats in the experimental groups).
The weight of the rats and the weight of the tumor were determined by standard techniques.

bladder cell line BBN [2] = test: Survival of Wistar rats with transplanted bladder cancer cells (Example 9); format: in vivo; details: for Number of live animals remaining in the groups after 30 days of treatment: 30 rats per group
Experimental: The following example illustrates the benefit of a biological composition of the invention in a Wistar rat model of human bladder cancer. The survival time of the rats after tumor injection and treatment was studied.
(§1) The biological composition comprising 10^8 cells per ml of activated and conditioned yeast cells of the strain Saccharomyces cerevisiae Hansen strain AS2.4 was prepared by the methods described in Sections 5.1 and subsections therein.
The animals were prepared in a similar manner as described in Section 8.1.
The rats injected with tumor cells were kept for 5 days and then were divided into 4 experimental groups of ten rats per group and one control group. The four experimental groups were triplicated (i.e., using a total of 120 rats in the experimental groups). In group 2AY, the rats received 0.3 ml of the biological composition once per day. In group 2NY, the rats received 0.3 ml of the untreated yeast cells once per day. In group 2VCR, the rats were injected intravenously with 3 mg of […] (VCR) per kg body weight per day. In group 2CK1, the rats received 0.3 ml of physiological saline once per day.
(§2) The rats received a biological composition, untreated yeast cells, VCR or saline on the same day as the tumor cells were transplanted. The rats in group 2CK2 also started receiving saline on the same day as the other four groups. The biological composition, untreated yeast cells and saline were administered orally by a feeding tube and the VCR by intravenous injection for 30 consecutive days. The rats were observed over 6 months from the day of tumor inoculation and survival was recorded. The weight of the rats and the weight of the tumor were determined by standard techniques.
Each of the 30 rats in each group received 30 consecutive days of either untreated yeast cells, VCR, saline or a biological composition of the invention.

[3] = tested on: BBN-induced T739 bladder cancer cells (murine bladder transitional cell line BTT739); test: Tumor growth in T739 mice with transplanted bladder cancer cells (Example 6); format: in vivo, mouse; details: tumor-bearing T739 mice; 30 consecutive days of treatment (yeast 0.3 ml oral once per day; TSPA 1.5 mg/kg/day i.v.); sacrificed on 31st day
Experimental: The mice injected with tumor cells were kept for 5 days and then were divided into 4 experimental groups of ten mice per group and one control group. The four experimental groups were triplicated (i.e., using a total of 120 mice in the experimental groups).
The mice in group CK2 also started receiving saline on the same day as the other four groups. […] The weight of the mice and the weight of the tumor were determined by standard techniques.

[4] = tested on: BBN-induced T739 bladder cancer cells (murine bladder transitional cell line BTT739); test: Survival of T739 mice with transplanted bladder cancer cells (Example 7); format: in vivo; details: for Number of live animals remaining in the groups after 30 days of treatment: 30 mice per group
Experimental: The following example illustrates the benefit of a biological composition of the invention in a mouse model of human bladder cancer based on a murine bladder transitional cell line BTT739. The survival time of mice after tumor injection and treatment was studied.
as §1
The tumors were prepared in a similar manner as described in Sections 6.1.
The animals were prepared in a similar manner as described in Section 6.2.
The mice injected with tumor cells were kept for 5 days and then were divided into 4 experimental groups of ten mice per group and one control group. The four experimental groups were triplicated (i.e., using a total of 120 mice in the experimental groups). In group 2AY, the mice received 0.3 ml of the biological composition once per day. In group 2NY, the mice received 0.3 ml of the untreated yeast cells once per day. In group 2TSPA, the mice were injected intravenously with 1.5 mg of thiotepa (TSPA) per kg body weight per day. In group 2CK1, the mice received 0.3 ml of physiological saline once per day.
as §2, with “The mice” for “The rats”, “cells, TSPA” for “cells, VCR”, “group CK2” for “group 2CK2”, “cells or” for “cells and”, “the TSPA” for “the VCR”, “the mice” for “the rats”
Each of the 30 mice in each group received 30 consecutive days of either untreated yeast cells, TSPA, saline or a biological composition of the invention.

[5] = 0 month after cessation of treatment
[6] = 1 month after cessation of treatment
[7] = 2 months after cessation of treatment
[8] = 3 months after cessation of treatment
[9] = 4 months after cessation of treatment
[10] = 5 months after cessation of treatment
[11] = 6 months after cessation of treatment
[12] = rats that survived the 6 months observation after 30 days of treatment
[13] = mice that survived the 6 months observation after 30 days of treatment

SMILES: CC[C@]1(O)C[C@@H]2CN(CCc3c([nH]c4ccccc34)[C@@](C(=O)OC)(c3cc4c(cc3OC)N(C)[C@H]3[C@@](O)(C(=O)OC)[C@H](OC(C)=O)[C@]5(CC)C=CCN6CC[C@]43[C@@H]65)C2)C1 [VCR, vinblastine]
- mean weight of rats and standard deviation (bladder cell line BBN [1]): 191.3 ± 12.4 g
- mean weight of tumor nodules and standard deviation (bladder cell line BBN [1]): 2.65 ± 1.7 g
- Number of live animals remaining in the groups after 30 days of treatment (bladder cell line BBN [2]; [5]): 30
- Number of live animals remaining in the groups after 30 days of treatment (bladder cell line BBN [2]; [6]): 30
- Number of live animals remaining in the groups after 30 days of treatment (bladder cell line BBN [2]; [7]): 30
- Number of live animals remaining in the groups after 30 days of treatment (bladder cell line BBN [2]; [8]): 30
- Number of live animals remaining in the groups after 30 days of treatment (bladder cell line BBN [2]; [9]): 30
- Number of live animals remaining in the groups after 30 days of treatment (bladder cell line BBN [2]; [10]): 28
- Number of live animals remaining in the groups after 30 days of treatment (bladder cell line BBN [2]; [11]): 26
- mean weight of rats and standard deviation (bladder cell line BBN [2]; [12]): all animals dead
- mean weight of tumor nodules and standard deviation (bladder cell line BBN [2]; [12]): all animals dead

SMILES: S=P(N1CC1)(N1CC1)N1CC1 [TSPA, thiotepa]
- mean weight of mice and standard deviation [3]: 19.5 ± 2.2 g
- mean weight of tumor nodules and standard deviation [3]: 3.3 ± 2.1 mg
- Number of live animals remaining in the groups after 30 days of treatment [4, 5]: 30
- Number of live animals remaining in the groups after 30 days of treatment [4, 6]: 24
- Number of live animals remaining in the groups after 30 days of treatment [4, 7]: 11
- Number of live animals remaining in the groups after 30 days of treatment [4, 8]: 7
- Number of live animals remaining in the groups after 30 days of treatment [4, 9]: 2
- Number of live animals remaining in the groups after 30 days of treatment [4, 10]: 0
- Number of live animals remaining in the groups after 30 days of treatment [4, 11]: 0
- survival outcome during the experiment ([4]; 30 days of treatment, observed over 6 months): all died during the experiment
- mean weight of mice and standard deviation [4, 13]: all animals dead
- mean weight of tumor nodules and standard deviation [4, 13]: all animals dead
